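All cell lines were grown in 96-well plates and treated with compound for 48 hours. The concentration for full growth arrest is given as TGI.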

Holding throughout (test): inhibition of tumour cell growth, NCI panel, 48 h
In assay [1] the test system is DLD-1 colon.
For assay [2], the system named is M14 melanoma.
Assay [3] relates to DMS 114 small cell lung.
Assay [4] deals with XF 498 CNS.
Assay [5] deals with EKVX NSCLC.
Assay [6] relates to KM12 colon.
The test system of assay [7] is K-562 leukemia.
Assay [8] relates to MALME-3M melanoma.
The subject of assay [9] is DMS 273 small cell lung.
Assay [10] concerns KM20L2 colon.
Assay [11] relates to LXFL 529 NSCLC.
The test system of assay [12] is ACHN renal.
Assay [13] relates to A549 NSCLC.
For assay [14], the system named is HOP-18 NSCLC.
For assay [15], the system named is SNB-78 CNS.
The test system of assay [16] is CAKI-1 renal.
The test system of assay [17] is A498 renal.
Assay [18] has as its system MCF7 breast.
Assay [19] relates to NCI/ADR-RES ovarian.
Assay [20] relates to SN12K1 renal.

In the case of `COc1ccc(Nc2cnc3cc(N)ccc3n2)cc1OC`, the TGI in [1], in assay [2], in assay [3], in assay [4], in assay [5] and in assay [6] was > 100 µM throughout. Also, the TGI in assay [7], in assay [8], in assay [9], in assay [10], in assay [11] and in assay [12] was > 100 µM each time.

With `CC(=O)Nc1ccc(C(=O)NN2C(=O)C(Cl)C2/C=C/c2ccccc2)cc1` (stereo not given), the TGI in [1], in assay [13], in [6], in assay [7], in assay [8] and in assay [11] was > 100 µM in each case. Moreover, the TGI in assay [14] and in assay [12] was > 100 µM each time.

For the molecule `COC(=O)C(Cc1cc(OC)c(OC)c(OC)c1)(NC(=O)c1ccccc1)P(=O)(OC)OC` (stereo not given), the TGI in assay [1], in [2], in assay [13], in assay [3], in assay [4] and in assay [5] was > 100 µM throughout. Besides, the TGI in [6], in assay [7], in [15], in assay [9], in [10] and in assay [11] was > 100 µM each time. Moreover, the TGI in [16], in assay [17] and in assay [12] was > 100 µM in each case.

`Nc1[nH]nc2c1Cc1c(n(Cc3ccc(Cl)cc3)c3ccccc13)C(=O)N2`: the TGI in assay [2] is 26 µM; in assay [13] it was 46.2 µM; in assay [18], 26.9 µM; in assay [5] it was 59.2 µM; in assay [19], 44.6 µM; in assay [7], > 100 µM. The results for the TGI in assay [8], in [16] and in assay [17] were 52.3 µM, 23.5 µM and 29.7 µM, respectively.

Take `c1ccc2c(CCNC3=NCCO3)cccc2c1`: the TGI in assay [2], in [13], in assay [18], in assay [5], in [6] and in [19] was > 10 µM in each case. The TGI in assay [7], in assay [8], in [16], in assay [17] and in assay [12] was > 10 µM each time.

In the case of `O=c1n(CC2CO2)c2ccccc2n1CC1CS1` (stereo not given), the TGI in assay [2], in [13], in [3], in assay [4], in [5] and in assay [6] was > 100 µM in each case. In addition, the TGI in assay [7], in assay [8], in assay [9], in [10], in assay [11] and in [16] was > 100 µM throughout. Also, in assay [12], the TGI is > 100 µM.

For `CSc1nc(NC2OC(CO)C(O)C(O)C2O)c(N)c(=O)[nH]1` (stereo not given), the TGI in [1], in [13], in assay [3], in assay [18], in assay [4] and in assay [5] was > 100 µM throughout. In addition, the TGI in assay [6], in [19], in assay [7], in assay [15], in assay [8] and in [9] was > 100 µM each time. Besides, the TGI in assay [10], in assay [20], in assay [14] and in assay [17] was > 100 µM each time.

`O=[N+]([O-])c1cnccc1-n1nnc2ccccc21`: the TGI is > 96.6 µM in assay [1]; > 90.1 µM in [13]; 26.6 µM in [3]; 36.5 µM in assay [18]; 27.1 µM in [4]; 90.6 µM in assay [5]. Besides, the TGI in [6] is 40.7 µM; in assay [19], 63.4 µM; in [7], > 100 µM; in assay [15], > 100 µM; in [8] it was 45.5 µM; in assay [9], 27.2 µM. In addition, the TGI in assay [10] was > 100 µM; in [20], > 95.5 µM; in [14], > 100 µM; in [17] it was 92.1 µM.

Source of the values: PubChem BioAssay (NCI).
